Source: article PMC12350126, “A novel carboxamide bromodomain inhibitor attenuates osteoarthritis via epigenetic repression of NF-κB and MAPK signaling” (Frontiers in Immunology, 2025)

Experiments:
BRD2 (BD1 + BD2) = target: T1, BRD2 (BD1 + BD2) (Homo sapiens, UniProt P25440); assay: TR-FRET assay, BRD2 (BD1 + BD2); settings: lower signal = stronger binding
T1 construct: kits specific for BRD2 (BD1 + BD2); purchased BPS Bioscience
Method: TR-FRET assays were conducted using kits specific for BRD2 (BD1 + BD2), BRD3 (BD1 + BD2), and BRD4 (BD1 + BD2) obtained from BPS Bioscience (San Diego, CA, USA). Bromodomain ligands were diluted in water, and master mixes were prepared by combining the diluted ligands with 1× BRD Homogeneous Assay Buffer. Thawed BRD proteins were also diluted with the same buffer. For each assay, 1.5 μL of the master mix was dispensed into wells of a microplate (Labcyte, San Jose, CA, USA), followed by the addition of 5 μL of diluted BRD protein to initiate the reaction. Plates were incubated at 20–22°C for 30–60 min. Subsequently, glutathione (GSH) acceptor beads and streptavidin-conjugated donor beads (both from PerkinElmer, Waltham, MA, USA) were diluted in 1× BRD Homogeneous Detection Buffer 1. Next, 10 μL of the acceptor bead solution was added to each well and incubated at 18°C for 30 min, followed by the addition of 10 μL of donor bead solution and a further incubation at 18°C for 15–30 min. Alpha particle counts were measured using an EnVision 2105 multimode plate reader (PerkinElmer).

[1] = system: PGE2 production in IL-1β-treated mouse articular chondrocytes; assay: PGE2 ELISA in IL-1β-treated chondrocytes; type: cell-based; settings: NCD 10, 50, 100 µM, dose-dependent
Method: NCD was supplied by Benobio Co (Gyeonggi-do, Korea), and IL‐1β was purchased from GenScript (Piscataway, NJ, USA). NCDs were dissolved in phosphate-buffered saline (PBS) for oral administration or IA injection.
PGE2 expression was determined by enzyme-linked immunosorbent assay (ELISA) using a PGE2 Immunoassay Kit (R&D Systems, Minneapolis, MN, USA). The levels of PGE2 in the conditioned medium of articular chondrocytes were determined. Collagenase activity was measured using a VICTOR X3 Microplate Reader (PerkinElmer, Waltham, MA, USA) at the excitation/emission wavelengths of 490/530 nm following the protocol provided by the manufacturer.

BRD4 BD1 = target: T2, BRD4 BD1 (Homo sapiens, UniProt O60885); assay: Biosensor binding kinetics assay (Octet), BRD4 BD1
T2 construct: BRD3 BD2, BRD4 BD1, BRD4 BD2; biotin (biotinylated protein); made in house; host or cells: Escherichia coli BL21(DE3)
Method: Binding kinetics were assessed using the Octet® R2 system (Sartorius, Göttingen, Germany). Superstreptavidin biosensors were loaded with biotinylated BRD2 BD1, BRD2 BD2, BRD3 BD1, BRD3 BD2, BRD4 BD1, BRD4 BD2, or biotin alone (as a negative control) in PBST buffer (phosphate-buffered saline containing 0.02% Tween 20 and 5% DMSO). The sensors were then dipped into compound solutions for 10 min. To evaluate association kinetics (kon), each sensor was exposed to serial dilutions of the protein for 180 s, followed by dipping them into PBST buffer to assess dissociation kinetics (koff). For control, a separate sensor loaded with the compound was dipped into PBST alone. Competition binding assays were performed by exposing the compound-loaded sensor to mixtures of proteins and test compounds.

[2] = PK analysis after intravenous administration in SD rats; type: in vivo, rat; set-up: AUC: unit not given here; settings: for AUC(0-t) / Cmax / half-life: male, rat, plasma
Method: SD rats (male, 6 weeks old) were obtained from Orient Bio (Seoul, Korea) and housed under pathogen-free conditions. All animal procedures were conducted in accordance with the guidelines of the Animal Care Facility at Biotoxtech Co., Ltd. (Chungcheongbuk-do, Korea). NCD was administered intravenously (IV) to SD rats at doses of 5, 10, or 20 mg/kg to evaluate its pharmacokinetics. Blood samples were collected from the jugular vein at various time points, mixed with 3.8% (w/v) sodium citrate, and centrifuged at 8,000 × g for 30 min to obtain plasma. The plasma samples were then mixed with acetonitrile (33%, v/v), vortexed for 5 min, and centrifuged at 13,000 × g for 10 min. The concentration of NCD in plasma was determined using high-performance liquid chromatography (HPLC; Shimadzu, Japan) equipped with a UV detector. Pharmacokinetic parameters were calculated using Microsoft Excel ([31]).

T1 sequence (P25440 65-459 limits assumed): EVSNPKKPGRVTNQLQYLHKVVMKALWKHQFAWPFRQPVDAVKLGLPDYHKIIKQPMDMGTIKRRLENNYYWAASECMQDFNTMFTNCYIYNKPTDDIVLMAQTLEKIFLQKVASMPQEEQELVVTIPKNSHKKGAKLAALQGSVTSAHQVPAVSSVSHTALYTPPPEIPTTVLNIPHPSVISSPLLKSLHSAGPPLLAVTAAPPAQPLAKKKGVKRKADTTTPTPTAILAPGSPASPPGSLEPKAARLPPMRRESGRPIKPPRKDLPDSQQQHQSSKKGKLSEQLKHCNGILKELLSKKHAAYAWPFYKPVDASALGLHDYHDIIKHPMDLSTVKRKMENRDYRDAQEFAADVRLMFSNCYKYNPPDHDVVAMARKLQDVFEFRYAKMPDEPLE

CNC(=O)CC1C(=O)NCCN1Cc1ccc(-c2ccccc2-c2cccc3c2CN(C)C3=O)o1 (centres unmarked) [NCD, N-methyl-2-(1-((5-(2-(2-methyl-1-oxoisoindolin-4-yl)phenyl)furan-2-yl)methyl)-3-oxopiperazin-2-yl)acetamide]
TR-FRET value (BRD2 (BD1 + BD2)): 96511 RLU | PGE2 production [1]: significantly decreased | Kd (BRD4 BD1): > 1000 nM | AUC ([2]; 5 mg/kg): 631.83 | AUC ([2]; 20 mg/kg): 4526.66 | AUC(0-t) ([2]; 5 mg/kg): 632 ng·h/mL | Cmax ([2]; 5 mg/kg): 1110 ng/mL | half-life ([2]; 5 mg/kg): 24.6 min | AUC(0-t) ([2]; 10 mg/kg): 1730 ng·h/mL | Cmax ([2]; 10 mg/kg): 2560 ng/mL | half-life ([2]; 10 mg/kg): 35.4 min | AUC(0-t) ([2]; 20 mg/kg): 4530 ng·h/mL | Cmax ([2]; 20 mg/kg): 4150 ng/mL | half-life ([2]; 20 mg/kg): 45.6 min
